According to patent US10221139B2, “Inhibitors of histone demethylases” (Gilead Sciences, Inc., priority 2012, dated 2019):

Test system: MCF7 cells
Assay: MCF7 cell proliferation assay (ATPlite)
Assay type: cell-based
Conditions: Homo sapiens, 120 hours
Method: MCF7 cells were seeded at 1250 cells/well in 50 μl medium/well in black 96 well plates. Cells were incubated for 24 hours before addition of compound. Compounds were diluted in complete medium (50 μl/well) and added to the plates in duplicates. The total volume of medium in the wells was 100 μl, and the final concentration of DMSO 0.5%. Complete medium used was DMEM with GlutaMAX containing 10% FBS and pen/strep.
120 hours after addition of compounds, the plates were harvested and analyzed by ATPlite 1 Step (Perkin Elmer, cat no 6016739) according to the manufactures recommendation. Briefly, 100 μl ATP lite solution was added to each well, plates were vortexed at 700 rpm 2 minutes, followed by 20 minutes incubation in the dark, and then analyzed for luminescence on EnSpire 2300 Mulitilabel reader (Perkin Elmer). EC50 values were calculated using GraphPad Prism 6.

SMILES	EC50 [nM]
CN(CCCCN(Cc1ccccc1)C1CC1)C(=O)CNCc1cc(C(=O)O)ccn1 [drawing 267, 2-({[({4-[benzyl(cyclopropyl)amino]butyl)(methyl)carbamoyl)methyl]amino}methyl)pyridine-4-carboxylic acid]	> 50000
CCOC(=O)Nc1ccc(COC(=O)c2ccnc(CNCCCCN(CC)CC)c2)cc1 [drawing 272, {4-[(ethoxycarbonyl)amino]phenyl}methyl 2-({[4-(diethylamino)butyl]amino}methyl)pyridine-4-carboxylate]	1000 to 50000
CCN(CCN(C)C)C(=O)CNCc1cc(C(=O)O)ccn1 [drawing 268, 2-{[({[2-(dimethylamino)ethyl](ethyl)carbamoyl}methyl)amino]methyl}pyridine-4-carboxylic acid]	1000 to 50000
Cn1c(CNCc2cc(C(=O)O)ccn2)nc2ccccc21 [drawing 259]	1000 to 50000
CSCCNCc1cc(C(=O)O)ccn1 [drawing 258, 2-({[2-(methylsulfanyl)ethyl]amino}methyl)pyridine-4-carboxylic acid]	1000 to 50000
O=C(O)c1ccnc(CNCCCN2CCC(Cc3ccccc3)CC2)c1 [drawing 265, 2-({[3-(4-benzylpiperidin-1-yl)propyl]amino}methyl)pyridine-4-carboxylic acid]	1000 to 50000
CCN(CCC#N)C(=O)CNCc1cc(C(=O)O)ccn1 [drawing 263, 2-[({[(2-cyanoethyl)(ethyl)carbamoyl]methyl}amino)methyl]pyridine-4-carboxylic acid]	1000 to 50000
CCOC(=O)c1ccccc1OC(=O)c1ccnc(CNCCCCN(CC)CC)c1 [drawing 270, 2-(ethoxycarbonyl)phenyl 2-({[4-(diethylamino)butyl]amino}methyl)pyridine-4-carboxylate]	< 1000
CCN(CC)CCCCNCc1cc(C(=O)Oc2c(OC)cccc2OC)ccn1 [drawing 273, 2,6-dimethoxyphenyl 2-({[4-(diethylamino)butyl]amino}methyl)pyridine-4-carboxylate]	< 1000
O=C(O)c1ccnc(CNCC2CC2)c1 [drawing 257, 2-{[(cyclopropylmethyl)amino]methyl}pyridine-4-carboxylic acid]	1000 to 50000
COc1ccccc1CN1CCC(NC(=O)CNCc2cc(C(=O)O)ccn2)CC1 [drawing 262]	1000 to 50000
CCN(CC)CCCCNCc1cc(C(=O)Oc2ccc(OC)cc2)ccn1 [drawing 269, 4-methoxyphenyl 2-({[4-(diethylamino)butyl]amino}methyl)pyridine-4-carboxylate]	< 1000
CCN(CC)CCCCNCc1cc(C(=O)OCCCN(C)C)ccn1 [drawing 271, 3-(dimethylamino)propyl 2-({[4-(diethylamino)butyl]amino}methyl)pyridine-4-carboxylate]	1000 to 50000
CN(CCCNCc1cc(C(=O)O)ccn1)Cc1ccccc1F [drawing 264, 2-{[(3-{[(2-fluorophenyl)methyl](methyl)amino}propyl)amino]methyl}pyridine-4-carboxylic acid]	1000 to 50000
C=CCN(CC=C)C(=O)CNCc1cc(C(=O)O)ccn1 [drawing 260, 2-[({[bis(prop-2-en-1-yl)carbamoyl]methyl}amino)methyl]pyridine-4-carboxylic acid]	1000 to 50000
O=C(O)c1ccnc(CNCCCNCCOc2ccccc2)c1 [drawing 266, 2-[({3-[(2-phenoxyethyl)amino]propyl}amino)methyl] pyridine-4-carboxylic acid]	1000 to 50000

The remaining lines, values ahead:

EC50 [nM]	SMILES
< 1000	CCN(CCN(C)C)C(=O)CNCc1cc(C(=O)N(C)S(C)(=O)=O)ccn1 [drawing 288, 2-{[({[2-(dimethylamino)ethyl](ethyl)carbamoyl}methyl)amino]methyl}-N-methanesulfonyl-N-methylpyridine-4-carboxamide]
< 1000	CCN(CCN(C)C)C(=O)CNCc1cc(C(=O)OC(C)CC(C)=O)ccn1 (stereo not shown) [drawing 279, 4-oxopentan-2-yl 2-{[({[2-(dimethylamino)ethyl](ethyl)carbamoyl}methyl)amino]methyl}pyridine-4-carboxylate]
1000 to 50000	CCN(CCN(C)C)C(=O)CNCc1cc(C(=O)N2CCOC2=O)ccn1 [drawing 289, N-[2-(dimethylamino)ethyl]-N-ethyl-2-({[4-(2-oxo-1,3-oxazolidine-3-carbonyl)pyridin-2-yl]methyl}amino)acetamide]
< 1000	CCCCCCCCCCCCCCCC(=O)OCC(COC(=O)CCCCCCCCCCCCCCC)OC(=O)c1ccnc(CNCC(=O)N(CC)CCN(C)C)c1 [drawing 285, 2-(2-{[({[2-(dimethylamino)ethyl](ethyl)carbamoyl}methyl)amino]methyl}pyridine-4-carbonyloxy)-3-(hexadecanoyloxy)propyl hexadecanoate]
< 1000	CCOC(=O)c1ccnc(CNCC(=O)N(CC)CCN(C)C)c1 [drawing 282, ethyl 2-{[({[2-(dimethylamino)ethyl](ethyl)carbamoyl}methyl)amino]methyl}pyridine-4-carboxylate]
< 1000	CCN(CCN(C)C)C(=O)CNCc1cc(C(=O)OC(C)CCN(C)C(=O)C(F)(F)F)ccn1 (stereo not shown) [drawing 281, 4-(2,2,2-trifluoro-N-methylacetamido)butn-2-yl 2-{[({[2-(dimethylamino)ethyl](ethyl)carbamoyl}methyl)amino]methyl}pyridine-4-carboxylate]
< 1000	C=CC(CCNC(=O)C(F)(F)F)OC(=O)c1ccnc(CNCC(=O)N(CC)CCN(C)C)c1 (stereo not shown) [drawing 283, 5-(trifluoroacetamido)pent-1-en-3-yl 2-{[({[2-(dimethylamino)ethyl](ethyl)carbamoyl}methyl)amino]methyl}pyridine-4-carboxylate]
1000 to 50000	CCOC(=O)c1ccccc1OC(=O)c1ccnc(CNCC(=O)N(CC)CCN(C)C)c1 [drawing 276, 2-(ethoxycarbonyl)phenyl 2-{[({[2-(dimethylamino)ethyl](ethyl)carbamoyl}methyl)amino]methyl}pyridine-4-carboxylate]
< 1000	CCN(CCN(C)C)C(=O)CNCc1cc(C(=O)OC(C)CCNC(=O)C(F)(F)F)ccn1 (stereo not shown) [drawing 280, 4-(trifluoroacetamido)butan-2-yl 2-{[({[2-(dimethylamino)ethyl](ethyl)carbamoyl}methyl)amino]methyl}pyridine-4-carboxylate]
< 1000	CCN(CCN(C)C)C(=O)CNCc1cc(C(=O)OCC(F)F)ccn1 [drawing 295, 2,2-difluoroethyl 2-{[({[2-(dimethylamino)ethyl](ethyl)carbamoyl}methyl)amino]methyl}pyridine-4-carboxylate]
< 1000	CCN(CC)CCCCNCc1cc(C(=O)Oc2c(C)cccc2C)ccn1 [drawing 274, 2,6-dimethylphenyl 2-({[4-(diethylamino)butyl]amino}methyl)pyridine-4-carboxylate]
1000 to 50000	CCN(CCN(C)C)C(=O)CNCc1cc(C(=O)OC(CNC(=O)C(F)(F)F)CC(=O)OC(C)C)ccn1 (stereo not shown) [drawing 290, propan-2-yl 3-(2-{[({[2-(dimethylamino)ethyl](ethyl)carbamoyl}methyl)amino]methyl}pyridine-4-carbonyloxy)-4-(trifluoroacetamido)butanoate]
< 1000	CCN(CCN(C)C)C(=O)CNCc1cc(C(=O)OCCF)ccn1 [drawing 294, 2-fluoroethyl 2-{[({[2-(dimethylamino)ethyl](ethyl)carbamoyl}methyl)amino]methyl}pyridine-4-carboxylate]
< 1000	CCN(CCN(C)C)C(=O)CNCc1cc(C(=O)Oc2ccc(C(C)(C)C)cc2)ccn1 [drawing 278, 4-tert-butylphenyl 2-{[({[2-(dimethylamino)ethyl](ethyl)carbamoyl}methyl)amino]methyl}pyridine-4-carboxylate]
1000 to 50000	CCN(CCN(C)C)C(=O)CNCc1cc(C(=O)Nc2ncco2)ccn1 [drawing 293, 2-{[({[2-(dimethylamino)ethyl](ethyl)carbamoyl}methyl)amino]methyl}-N-(1,3-oxazol-2-yl)pyridine-4-carboxamide]
< 1000	CCCCCCCCCCCCCCCC(=O)OCC(COC(=O)c1ccnc(CNCC(=O)N(CC)CCN(C)C)c1)OC(=O)CCCCCCCCCCCCCCC (stereo not shown) [drawing 286, 1-(2-{[({[2-(dimethylamino)ethyl](ethyl)carbamoyl}methyl)amino]methyl}pyridine-4-carbonyloxy)-3-(hexadecanoyloxy)propan-2-yl hexadecanoate]
< 1000	CCOC(=O)N(C)c1ccc(COC(=O)c2ccnc(CNCCCCN(CC)CC)c2)cc1 [drawing 277, {4-[(ethoxycarbonyl)(methyl)amino]phenyl}methyl 2-({[4-(diethylamino)butyl]amino}methyl)pyridine-4-carboxylate]
1000 to 50000	CCN(CCN(C)C)C(=O)CNCc1cc(C(=O)Oc2ccc(OC)cc2)ccn1 [drawing 275, 4-methoxyphenyl 2-{[({[2-(dimethylamino)ethyl](ethyl)carbamoyl}methyl)amino]methyl}pyridine-4-carboxylate]
